Laboratory results from US20040167226A1, “Methods for the treatment of pain and traumatic injury using benzamides and compositions containing the same” (priority 2002, published 2004).

Assay: Absolute oral bioavailability and blood t1/2 of Compound A
Assay type: in vivo, rats
Details: rat, whole blood
Experimental: The absolute oral bioavailability of Compound A was determined by comparing the area-under-the-curve (“AUC”) following a 20 mg/kg IV dose of Compound A (2 ml/kg, 75% PEG solution) to a 20 mg/kg dose of Compound A dissolved in 1% methyl cellulose. Blood concentrations were determined at 0, 0.083, 0.15, 0.5, 1, 2, 4, 8, and 24 hours post-IV dose and 0, 0.5, 1, 2, 4 and 8 hours post-oral dose. Four animals were dosed orally and four animals were dosed intravenously.
In another experiment, six rats were orally dosed with 30 mg/kg of Compound A dissolved in 1% methyl cellulose. Blood samples were taken at 0.5, 1, 2, 5, 8, 12, 16, 20 and 24 hours. The apparent t1/2 for Compound A in the blood was 8 hours. This is a very long t1/2 for a drug in rats and is a good predictor of once-a-day dosing for Compound A in humans. Such a dosing regimen would be a significant therapeutic advantage in the clinic.
The blood samples were analyzed by HPLC. Detection was by UV at 262 nm. Responses were converted to concentrations by comparison to responses from calibration standards injected onto the column. The resulting concentrations were used to calculate the AUC.

SMILES: CC(=O)Nc1ccc(C(=O)NC(C)(C)C)cc1 [Compound A, N-tert-butyl-4-acetamidobenzamide]
- bioavailability (AUC of 20 mg/kg oral (1% methyl cellulose) vs 20 mg/kg IV (75% PEG), read-out: absolute bioavailability through oral dosing): 52%
- half-life (rats, 30 mg/kg oral in 1% methyl cellulose, read-out: apparent t1/2 in the blood (converted)): 8 h
